Assay results: BindingDB's records for patent US10669227 (THE RESEARCH FOUNDATION OF STATE UNIVERSITY OF NEW YORK, 2020)
pIC50: −log10 of the molar value.

Molecular target: 72 kDa type IV collagenase (Homo sapiens, UniProt P08253)
Test: Inhibition of MMPs
Source text: However, it should be noted that excessive inhibition of MMP activity may not be desirable therapeutically because a minimal, or basal, level of MMPs may be necessary for optimal defense of the host.

72 kDa type IV collagenase, sequence (P08253 whole entry): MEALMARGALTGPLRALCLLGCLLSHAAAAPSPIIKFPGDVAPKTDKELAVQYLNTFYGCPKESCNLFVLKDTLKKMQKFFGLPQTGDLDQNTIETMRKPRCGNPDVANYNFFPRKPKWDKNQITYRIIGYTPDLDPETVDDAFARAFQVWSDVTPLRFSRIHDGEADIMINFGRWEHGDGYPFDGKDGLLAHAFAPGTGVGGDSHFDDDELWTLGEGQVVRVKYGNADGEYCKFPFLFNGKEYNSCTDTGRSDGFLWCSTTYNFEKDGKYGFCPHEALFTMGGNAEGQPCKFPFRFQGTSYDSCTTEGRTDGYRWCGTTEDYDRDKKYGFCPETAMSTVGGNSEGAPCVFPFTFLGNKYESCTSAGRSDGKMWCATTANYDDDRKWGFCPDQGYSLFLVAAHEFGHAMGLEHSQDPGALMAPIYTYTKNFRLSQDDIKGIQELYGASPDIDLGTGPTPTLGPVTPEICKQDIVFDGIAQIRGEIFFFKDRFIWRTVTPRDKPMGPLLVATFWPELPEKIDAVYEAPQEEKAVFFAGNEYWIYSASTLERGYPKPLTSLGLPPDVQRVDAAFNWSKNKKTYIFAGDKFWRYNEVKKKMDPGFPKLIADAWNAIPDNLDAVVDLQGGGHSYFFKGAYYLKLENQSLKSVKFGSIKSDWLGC

pIC50: 4.07
SMILES: COc1cc(/C=C/C(=O)C(C(=O)/C=C/c2ccc(O)c(CO)c2)C(=O)Nc2ccccc2)ccc1O (stereo unspecified) [US10669227, Compound 6]
